In brackets after ≈: the same amount, converted by molar mass.
Tests used:
[1] = system: H9 (acute lymphoblastic leukemia, ALL); test: MTT growth inhibition of leukemia cells, 72 h; format: cell-based, human; settings: Homo sapiens, H9, 72 h; for IC50: read-out: IC50; for IC90: read-out: IC90
From the text: (§1) Leukemia cell lines: leukemia cell lines: K562/adr (drug-resistant, chronic myeloid leukemia, CML), NB4 (acute promyelocytic leukemia, AML), Kasumi-1 (acute myeloid leukemia M2 type, AML-M2), and Jurkat (acute lymphoblastic leukemia, ALL), all of which are donated by Cancer Research Institute of Zhejiang University, China; and H9 (acute lymphoblastic leukemia, ALL), which is purchased from China Center for Type Culture Collection (CCTCC).
(§2) The standard sample of tanshinone I (TA) and the 2-aminated methylene or 2-esterified methylene tanshinone I derivatives of the present invention are sufficiently dissolved with dimethylsulfoxide to produce a stock solution of 10 mg/mL, which is refrigerated at 4° C. and stored in dark, and is diluted with a cell culture medium to the desired concentration prior to experimentation.
(§3) Obtaining 6000 well-growing leukemia cells and inoculating them into wells of a 96-well cell culture plate. The culture medium is the RPMI-1640 cell culture medium containing 10% fetal bovine serum. After adding on the second day the 2-aminated methylene or 2-esterified methylene tanshinone I derivatives of different concentrations and mixing uniformly, placing the plate in a carbon dioxide cell incubator (5% CO2) at 37° C. and incubated for 72 hours. Then the viable cell concentration is determined by MTT method.

[2] = system: Jurkat (acute lymphoblastic leukemia, ALL); test: MTT growth inhibition of leukemia cells, 72 h; format: cell-based, human; settings: Homo sapiens, 72 h; for IC50: read-out: IC50; for IC90: read-out: IC90
From the text: as §1, §2, §3

[3] = system: K562/adr (drug-resistant, chronic myeloid leukemia, CML); test: MTT growth inhibition of leukemia cells, 72 h; format: cell-based, human; settings: Homo sapiens, K562/Adr; for IC50: read-out: IC50; for IC90: read-out: IC90
From the text: as §1, §2, §3

[4] = system: Kasumi-1 (acute myeloid leukemia M2 type, AML-M2); test: MTT growth inhibition of leukemia cells, 72 h; format: cell-based, human; settings: Homo sapiens, Kasumi-1, 72 h; for IC50: read-out: IC50; for IC90: read-out: IC90
From the text: as §1, §2, §3

[5] = system: NB4 (acute promyelocytic leukemia, AML); test: MTT growth inhibition of leukemia cells, 72 h; format: cell-based, human; settings: Homo sapiens, NB4, 72 h; for IC50: read-out: IC50; for IC90: read-out: IC90
From the text: as §1, §2, §3

[6] = system: RPMI8226 (multiple myeloma); test: MTT growth inhibition of multiple myeloma cells, 72 h; format: cell-based, human; settings: Homo sapiens, RPMI 8226, 72 h; for IC50: read-out: IC50; for IC90: read-out: IC90
Description: Myeloma cell lines: RPMI8226 (multiple myeloma), purchased from Fuxiang Bio-tech Co. Ltd., Shanghai, China.
as §2
Obtaining 6000 well-growing myeloma cells as above and inoculating them into wells of a 96-well cell culture plate. The culture medium is the 1640 cell culture medium containing 10% fetal bovine serum. After adding the 2-aminated methylene or 2-esterified methylene tanshinone I derivatives of different concentrations and mixing uniformly, placing the plate in a carbon dioxide cell incubator (5% CO2) at 37° C. and incubated for 72 hours. Then the viable cell concentration is determined by MTT method.

A549 (human lung cancer) = test: MTT growth inhibition of human solid tumor cells, 72 h; format: cell-based; settings: Homo sapiens, A549, 72 h; for IC50: read-out: IC50; for IC90: read-out: IC90
Description: (§4) Hep-2 (laryngeal carcinoma), A549 (human lung cancer), CaES-17 (esophageal cancer cell), PC-3 (prostate cancer), CNE (nasopharyngeal carcinoma cell), and SK-OV-3 (ovarian cancer cell), all of which are purchased from China Center For Type Culture Collection; RKO (human colon adenocarcinoma cell), MGC 803 (human gastric cancer cell), MG63 (osteosarcoma) and U87 MG (malignant glioma cell), all of which are purchased from Fuxiang Bio-tech Co. Ltd., Shanghai, China; PANC-1 (pancreatic cancer), Hep G2 (human liver cancer cell), Becap37 (human breast cancer cell) and Hela (human cervical cancer cell), all of which are donated by Cancer Research Institute of Zhejiang University, China.
as §2
(§5) Obtaining 4000 well-growing human solid tumor cells and inoculating them into wells of a 96-well cell culture plate. The culture medium is DMEM High Glucose cell culture medium containing 10% fetal bovine serum. The plate is placed in a carbon dioxide cell incubator (5% CO2) at 37° C. and incubated for 24 hours. After adding the 2-aminated methylene or 2-esterified methylene tanshinone I derivatives of different concentrations and mixing uniformly, the plate is placed in a carbon dioxide cell incubator (5% CO2) at 37° C. and incubated for 72 hours. Then the viable cell concentration is determined by the MTT method.

[7] = system: Becap37 (human breast cancer cell); test: as above; format: cell-based; settings: Homo sapiens, Becap-37, 72 h; for IC50: read-out: IC50; for IC90: read-out: IC90
Description: as §4, §2, §5

[8] = system: CNE (nasopharyngeal carcinoma cell); test: as above; format: cell-based; settings: Homo sapiens; for IC50: read-out: IC50; for IC90: read-out: IC90
Description: as §4, §2, §5

[9] = system: CaES-17 (esophageal cancer cell); test: as above; format: cell-based; settings: Homo sapiens, CaEs17, CaEs-17, 72 h; for IC50: read-out: IC50; for IC90: read-out: IC90
Description: as §4, §2, §5

[10] = system: Hela (human cervical cancer cell); test: as above; format: cell-based; settings: Homo sapiens, HeLa, 72 h; for IC50: read-out: IC50; for IC90: read-out: IC90
Description: as §4, §2, §5

[11] = system: Hep G2 (human liver cancer cell); test: as above; format: cell-based; settings: Homo sapiens, HepG2, Hep G2, 72 h; for IC50: read-out: IC50; for IC90: read-out: IC90
Description: as §4, §2, §5

[12] = system: Hep-2 (laryngeal carcinoma); test: as above; format: cell-based; settings: Homo sapiens, HEp-2, 72 h; for IC50: read-out: IC50; for IC90: read-out: IC90
Description: as §4, §2, §5

MG63 (osteosarcoma) = test: as above; format: cell-based; settings: Homo sapiens, MG-63, 72 h; for IC50: read-out: IC50; for IC90: read-out: IC90
Description: as §4, §2, §5

[13] = system: MGC 803 (human gastric cancer cell); test: as above; format: cell-based; settings: Homo sapiens, MGC-803, 72 h; for IC50: read-out: IC50; for IC90: read-out: IC90
Description: as §4, §2, §5

[14] = system: PANC-1 (pancreatic cancer); test: as above; format: cell-based; settings: Homo sapiens, PANC-1, 72 h; for IC50: read-out: IC50; for IC90: read-out: IC90
Description: as §4, §2, §5

PC-3 (prostate cancer) = test: as above; format: cell-based; settings: Homo sapiens, PC-3, 72 h; for IC50: read-out: IC50; for IC90: read-out: IC90
Description: as §4, §2, §5

[15] = system: RKO (human colon adenocarcinoma cell); test: as above; format: cell-based; settings: Homo sapiens; for IC50: read-out: IC50; for IC90: read-out: IC90
Description: as §4, §2, §5

[16] = system: SK-OV-3 (ovarian cancer cell); test: as above; format: cell-based; settings: Homo sapiens, SK-OV-3, 72 h; for IC50: read-out: IC50; for IC90: read-out: IC90
Description: as §4, §2, §5

[17] = system: U87 MG (malignant glioma cell); test: as above; format: cell-based; settings: Homo sapiens, U-87 MG, U87-MG, 72 h; for IC50: read-out: IC50; for IC90: read-out: IC90
Description: as §4, §2, §5

Cc1c(CN2CCCN(C)CC2)oc2c1C(=O)C(=O)c1c-2ccc2c(C)cccc12 [BS-TA-B12]
IC50 [1]: 4.11 µg/mL (≈ 10.2 µM)
IC90 [1]: 10.5 µg/mL (≈ 26.1 µM)
IC50 [2]: 1.78 µg/mL (≈ 4.42 µM)
IC90 [2]: 5.91 µg/mL (≈ 14.7 µM)
IC50 [3]: 1.5 µg/mL (≈ 3.73 µM)
IC90 [3]: 2.79 µg/mL (≈ 6.93 µM)
IC50 [4]: 0.89 µg/mL (≈ 2.21 µM)
IC90 [4]: 1.9 µg/mL (≈ 4.72 µM)
IC50 [5]: 0.94 µg/mL (≈ 2.34 µM)
IC90 [5]: 1.9 µg/mL (≈ 4.72 µM)
IC50 [6]: 3.72 µg/mL (≈ 9.24 µM)
IC90 [6]: 7.13 µg/mL (≈ 17.7 µM)
IC50 (A549 (human lung cancer)): 1.65 µg/mL (≈ 4.1 µM)
IC90 (A549 (human lung cancer)): 4.33 µg/mL (≈ 10.8 µM)
IC50 [7]: 3.34 µg/mL (≈ 8.3 µM)
IC90 [7]: 7.38 µg/mL (≈ 18.3 µM)
IC50 [8]: 0.45 µg/mL (≈ 1.12 µM)
IC90 [8]: 0.62 µg/mL (≈ 1.54 µM)
IC50 [9]: 0.73 µg/mL (≈ 1.81 µM)
IC90 [9]: 1.97 µg/mL (≈ 4.89 µM)
IC50 [10]: 1.46 µg/mL (≈ 3.63 µM)
IC90 [10]: 3.58 µg/mL (≈ 8.89 µM)
IC50 [11]: 3.8 µg/mL (≈ 9.44 µM)
IC90 [11]: 7.96 µg/mL (≈ 19.8 µM)
IC50 [12]: 4.01 µg/mL (≈ 9.96 µM)
IC90 [12]: 9.08 µg/mL (≈ 22.6 µM)
IC50 (MG63 (osteosarcoma)): 3.37 µg/mL (≈ 8.37 µM)
IC90 (MG63 (osteosarcoma)): 5.49 µg/mL (≈ 13.6 µM)
IC50 [13]: 2.48 µg/mL (≈ 6.16 µM)
IC90 [13]: 5.05 µg/mL (≈ 12.5 µM)
IC50 [14]: 1.06 µg/mL (≈ 2.63 µM)
IC90 [14]: 4.16 µg/mL (≈ 10.3 µM)
IC50 (PC-3 (prostate cancer)): 9.3 µg/mL (≈ 23.1 µM)
IC90 (PC-3 (prostate cancer)): 11.2 µg/mL (≈ 27.8 µM)
IC50 [15]: 0.7 µg/mL (≈ 1.74 µM)
IC90 [15]: 5.26 µg/mL (≈ 13.1 µM)
IC50 [16]: 2.53 µg/mL (≈ 6.29 µM)
IC90 [16]: 3.84 µg/mL (≈ 9.54 µM)
IC50 [17]: 1.16 µg/mL (≈ 2.88 µM)
IC90 [17]: 3.4 µg/mL (≈ 8.45 µM)

Cc1c(CN(C)CCOC(=O)C(C)(C)C)oc2c1C(=O)C(=O)c1c-2ccc2c(C)cccc12 [BS-TA-62]
IC50 [1]: 0.6 µg/mL (≈ 1.34 µM)
IC90 [1]: 1.8 µg/mL (≈ 4.02 µM)
IC50 [2]: 0.89 µg/mL (≈ 1.99 µM)
IC90 [2]: 3.47 µg/mL (≈ 7.75 µM)
IC50 [3]: 0.78 µg/mL (≈ 1.74 µM)
IC90 [3]: 3.48 µg/mL (≈ 7.78 µM)
IC50 [4]: 0.42 µg/mL (≈ 0.938 µM)
IC90 [4]: 0.97 µg/mL (≈ 2.17 µM)
IC50 [5]: 1.42 µg/mL (≈ 3.17 µM)
IC90 [5]: 3.85 µg/mL (≈ 8.6 µM)
IC50 [6]: 2.64 µg/mL (≈ 5.9 µM)
IC90 [6]: 7.68 µg/mL (≈ 17.2 µM)
IC50 (A549 (human lung cancer)): 3.3 µg/mL (≈ 7.37 µM)
IC90 (A549 (human lung cancer)): 21.4 µg/mL (≈ 47.7 µM)
IC50 [7]: 5.04 µg/mL (≈ 11.3 µM)
IC90 [7]: 11.6 µg/mL (≈ 26 µM)
IC50 [8]: 1.8 µg/mL (≈ 4.02 µM)
IC90 [8]: 18 µg/mL (≈ 40.2 µM)
IC50 [9]: 6.33 µg/mL (≈ 14.1 µM)
IC90 [9]: 11.8 µg/mL (≈ 26.4 µM)
IC50 [10]: 9.26 µg/mL (≈ 20.7 µM)
IC90 [10]: > 16 µg/mL
IC50 [11]: 5.41 µg/mL (≈ 12.1 µM)
IC90 [11]: 22.6 µg/mL (≈ 50.4 µM)
IC50 [12]: 6.81 µg/mL (≈ 15.2 µM)
IC90 [12]: > 16 µg/mL
IC50 (MG63 (osteosarcoma)): 4.88 µg/mL (≈ 10.9 µM)
IC90 (MG63 (osteosarcoma)): > 16 µg/mL
IC50 [13]: 6.3 µg/mL (≈ 14.1 µM)
IC90 [13]: 14.1 µg/mL (≈ 31.4 µM)
IC50 [14]: 1.42 µg/mL (≈ 3.17 µM)
IC90 [14]: 16 µg/mL (≈ 35.8 µM)
IC50 (PC-3 (prostate cancer)): 3.21 µg/mL (≈ 7.17 µM)
IC90 (PC-3 (prostate cancer)): 8.76 µg/mL (≈ 19.6 µM)
IC50 [15]: 0.47 µg/mL (≈ 1.05 µM)
IC90 [15]: > 16 µg/mL
IC50 [16]: > 16 µg/mL
IC90 [16]: > 16 µg/mL
IC50 [17]: 3.2 µg/mL (≈ 7.15 µM)
IC90 [17]: 7.65 µg/mL (≈ 17.1 µM)

Reference: patent publication US9328083B2, “2-aminated methylene or 2-esterified methylene tanshinone derivatives, and preparation method and application thereof” (HANGZHOU BENSHENG PHARMACEUTICAL CO., LTD., priority 2011, dated 2016)
